Laboratory results as given in patent US20110076236A1, “COMPOSITIONS AND METHODS OF TREATMENT USING MODULATORS OF MOTONEURON DISEASES” (Kinemed, Inc., priority 2008, published 2011).
Entries after “also recorded” stand apart in the source; their conditions may differ.

How the values were obtained:
SOD1-G93A TGN mice = assay: Clinical assessment (gait/stride length, onset, end stage) of SOD1-G93A TGN mice treated from presymptomatic stage; type: in vivo, mouse; details: treatment from 7 weeks; for Mortality: age at death; for Onset of Motor Deficits: age at onset
Procedure: FIG. 6. Noscapine-MK801 combination delays onset of disease and death in SOD1-G93A TGN mice. The one and two-drug treatments were started at an early (i.e., presymptomatic) stage of disease (7 weeks). […] Mice received noscapine intraperitoneally and MK-801 in drinking water.
Female SOD-1 G93A TGN mice were obtained from Jackson laboratory (strain #2726). The controls were matched litter mates. Treatment groups were three per group. Noscapine was injected intraperitoneal in the thigh 3 times/week (0.2 mg/kg i.p.) and MK801 was administered continuously in drinking water (12 mg/kg/d). Gait analysis was done by the method of Wooley et al., Muscle Nerve 2005 32(1):43-50 and Carter et al. J. Neurosci., 19(8):3248-3257, hereby incorporated by reference in their entirety.
For clinical assessment endpoints scoring was selected as follows:
GROUP CLASSIFICATION: Presymptomatic
Clinical signs: Full mobility and no observable difference in behavior from age-matched controls (Gait or stride length analysis).
GROUP CLASSIFICATION: Onset
Clinical signs: Abnormal Gait or stride length analysis and hindlimb weakness: >40% reduction in stride length vs. age-matched littermates.
GROUP CLASSIFICATION: End Stage (euthanization)
Clinical signs: noticeable and complete hind limb paralysis (which in this strain occurs more on one limb than the other) and inability to right themselves in 5 sec time window. This stage starts usually as the mice are failing the gait analysis test and enter the End stage. Therefore, Transgenic SOD1-G93A TGN mice are euthanized at the onset of noticeable and complete hindlimb paralysis and inability to right themselves in 5 sec time window.

[1] = tested on: MT-mediated fast axonal transport; assay: MT-mediated fast axonal transport of 2H-label neuregulin-1 and chromogranin-B synaptic vesicle cargo (CSF secretion, spinal cord retention); type: in vivo, mouse; details: 13 weeks SOD1 G93A mice; 3 weeks treatment, 100 mg/kg/d and 200 mg/kg/d
Procedure: After 3 weeks of treatment with MTMA noscapine (100 mg/kg/d and 200 mg/kg/d) an intraperitoneal pulse dose of 30-35 ml/kg ^2H2O CSF was given and CSF as well as spinal cord lumbar region were collected from 13 weeks wild type (WT) and symptomatic SOD1 G93A mice at 24, 48 and 72 h, respectively. CSF secretion rates and neuronal kinetic of retention of ^2H-label neuregulin-1 [NeuR-1] or ^2H-label chromogranin-B [Chr-B] containing synaptic vesicles were measured as described above (FIGS. 23 and 24). […] Neuroprotective actions of agents are evaluated by comparing their ability to normalize the time course, extent or pattern of appearance of labeled secreted synaptic vesicle “cargo” molecules in the body fluid or tissue sampled
As detailed in FIG. 25 (A) transgenic SOD G93A mice (representing an animal model of ALS), are given heavy water (^2H2O), to label secreted molecules in motor neurons (n=30 mice total). […] Protein-derived amino acids were derivatized to pentafluorobenzyl derivatives, and ^2H incorporation in alanine released from neuregulin-1 were measured by GC/MS. […] Protein-derived amino acids are derivatized to pentafluorobenzyl derivatives, and ^2H incorporation from ^2H2O into derivatized-alanine is measured by GC/MS, as described in detail elsewhere [Fanara, P. et al. In vivo measurement of microtubule dynamics using stable isotope labeling with heavy water. […]

[2] = in vivo; cited from earlier work

## C[C@]12N[C@H](Cc3ccccc31)c1ccccc12 [MK-801, Dizocilipine]
SOD1-G93A TGN mice
  Mortality: 112 to 119 days
  Onset of Motor Deficits: 105 to 112 days

## COc1ccc2c(c1OC)C(=O)O[C@@H]2[C@H]1c2c(cc3c(c2OC)OCO3)CCN1C [Noscapine, noscapine]
SOD1-G93A TGN mice
  Mortality: 112 to 119 days
  Onset of Motor Deficits: 98 to 105 days
[1]
  fast axonal transport of 2H-label neuregulin-1 and chromogranin-B containing synaptic vesicles: normalized MT-mediated fast axonal transport rates; also recorded: improves this delayed fast axonal transport
[2]
  blood brain barrier penetration: penetrates the blood brain barrier
  half-life in CNS tissue (brain and spinal cord) and PNS: long half-life
